# Experiments:
# [1] = system: antral portion of the stomach; test: Antral stomach contractions monitored by transducing crystals in anesthetized rats; assay type: in vivo, Sprague-Dawley rats
# Description: Two male Sprague-Dawley rats, approximately 12 weeks old (Harlan, Indianapolis, Ind.) were anesthetized with urethane and their stomachs were exposed through a small abdominal incision. Two 2.4 mm transducing crystals (Sonometrics, Ontario, Canada) were placed on the antral portion of the stomach such that circular contractions could be monitored as a change in the distance between the two crystals. The crystals were attached with VETBOND TISSUE ADHESIVE (3M, St. Paul, Minn.).
# The amplitude of the NE-induced decrease was approximately 50% of the acetylcholine-induced increase in distance. Both responses were transient.
# A negative control of 10 μl of phosphate buffer solution (PBS) applied topically between the crystals had no effect.
# A 14 amino acid zsig33 peptide (from amino acid residue 24 (Gly) to amino acid residue 37 (Gln) of SEQ ID NO: 2) was dissolved in PBS) and 10 μl was applied topically for a final concentration of 1 μg, […]
# stomach = test: Transit of phenol red through the stomach (gastric emptying) of fasted rats; assay type: in vivo, Sprague-Dawley rats; settings: 1 μg applied topically to the stomach; 30 minutes after gavage; compared to a scrambled peptide
# Protocol: The effect of topically applied zsig33 peptide (amino acid 24 to 37 of SEQ ID NO: 2) on the transit of phenol red through the stomachs of fasted male Sprague-Dawley rats (Harlan, Indianapolis, Ind.) was evaluated. The rats (6 animals, 8 weeks old) were fasted 24 hrs prior to being anesthetized with urethane(0.5 ml/100 grams of 25% solution). After anesthetizing, the animals were orally gavaged with 1 ml of Phenol Red solution (50 mg/ml in 2% methylcellulose solution). The stomach of each animal was exposed through a small abdominal incision and either 1 μg zsig33 peptide or a 14 amino acid control of a scrambled sequence peptide was applied topically to the stomach five minutes following the gavage. The amount of Phenol Red remaining in the stomach was determined by measuring optical density of the extracted stomach contents 30 minutes after the gavage.
# [2] = system: post-prandial glucose absorption; test: Oral glucose challenge after oral zsig33 peptide in ob/ob mice; assay type: in vivo; settings: 100 μg orally, 30 minutes prior to an oral glucose challenge
# Protocol: Eight female ob/ob mice, approximately 6 weeks old (Jackson Labs, Bar Harbor, Me.) were adapted to a 4 hour daily feeding schedule for two weeks. After two weeks on the feeding schedule, the mice were give 100 μg of a 14 amino acid amino zsig33 peptide (from amino acid residue 24 (Gly) to amino acid residue 37 (Gln) of SEQ ID NO: 2) in 100 μl sterile 0.1% BSA by oral gavage, immediately after their eating period (post-prandially). Thirty minutes later, the mice were challenged orally with a 0.5 ml volume of 25% glucose. Retroorbital bleeds were done to determine serum glucose levels. Blood was drawn prior to zsig33 dosing, prior to oral glucose challenge, and at 1, 2, 4, and 20 hours following the glucose challenge.
# [3] = Fourteen-day twice-daily oral dosing in ob/ob mice: body weight, food intake, glucose clearance; assay type: in vivo; settings: 1 μg/mouse orally twice daily for fourteen days
# Protocol: Sixteen female ob/ob mice, 8 weeks old, (Jackson Labs, Bar Harbor, Me.) were adapted to a special 4 hour daily feeding schedule for two weeks. The were fed ad libitum from 7:30-11:30 am daily. After two weeks on the feeding schedule, the mice were divided into two groups of 8. One group was given 1.0 μg/mouse of zsig33-1 (14 amino acid peptide) and the other vehicle (a 14 amino acid scrambled sequence peptide) in 100 μl sterile 0.1% BSQA by oral gavage just prior to receiving food, and at the end of the 4 hour feeding period. The mice were […] twice daily for fourteen days, during which time food intake and body weight was measured daily. On day 14, immediately after the second oral gavage of the zsig33-1 peptide, the mice were challenged orally with an 0.5 ml volume of 25% glucose. Retro-orbital bleeds were done to determine serum glucose levels immediately prior to administration of the zsig33-1 peptide or vehicle ([…].), and also at 0, 1, 2, and 4 hours following the glucose challenge.
Compound,amplitude of the NE-induced decrease relative to the acetylcholine-induced increase in distance ([1]; 10 μl of 1 μM applied topically),change in the distance between the two crystals ([1]; 10 μl of 1 μM applied topically to the stomach between the crystals),reduction of the amount of Phenol Red remaining in the stomach (stomach),change in crystal distance ([1]; 1 μg in 10 μl PBS applied topically),"rate and amplitude of the contractions (dose dependence) ([1]; 10 μg and 100 μg applied topically, compared with 1 μg)",post-prandial glucose absorption (serum glucose) [2],daily body weight [3],food intake [3]
"NC[C@H](O)c1ccc(O)c(O)c1 [norepinephrine, reference compound]",approximately 50%,reduction in the distance between the two crystals,,,,,,
zsig33-1: peptide corresponding to amino acid residue 24 (Gly) to residue 37 (Gln) of SEQ ID NO: 2; residues 1 to 14 of SEQ ID NO:11 (GSSFLSPEHQRVQQRKES; listed as Homo sapiens),,,approximately 25%,"sustained, rhythmic increase and decrease in crystal distance",enhanced responses in both rate and amplitude,enhanced post-prandial glucose absorption,no affect,no affect

# From patent publication US7354739B2, “TML polynucleotides” (ZymoGenetics, Inc., priority 1997, dated 2008)
